Key:
Format in all cases: in vivo, mouse
iNKT cells = test: Flow cytometric detection of iNKT and T cells in spleen and liver of septic B6 mice; settings: 24 hours
Method: FIG. 10: Effect of glycolipid agonists on cytokine expression in naïve B6 mice, and on iNKT cells in septic B6 mice. (a) Naïve B6 mice were injected i.p. with 4 μg OCH or KRN7000 or C20:2, and bled at 2, 12, and 24 hours post-injection. Serum samples were assayed for IL-4 and IFN-γ by enzyme-linked immunosorbent assay (ELISA). […] Vehicle-treated mice had cytokine levels below limits of detection. (b) B6 mice were given an intraperitoneal injection of fecal slurry (500 μL of a 90 mg/mL solution) to induce IAS and concomitantly treated with 4 μg of vehicle, OCH, or KRN7000. After 24 hours, mice were sacrificed, and cell suspensions from the liver and spleen were stained for the flow cytometric detection of CD1d tetramer+ TCRβ+iNKT cells.
To obtain hepatic lymphoid mononuclear cells (MNCs), mice were euthanized, and livers were flushed with sterile PBS before they were harvested and pressed through a 40-μm nylon mesh. The resulting homogenate was washed in cold PBS, resuspended in a 33.75% Percoll PLUS solution (GE Healthcare Bio-Sciences) and spun at 700×g for 12 min at room temperature. The pelleted cells were then treated with ACK lysis buffer to remove erythrocytes and washed in cold PBS prior to staining. To obtain omental lymphoid MNCs, the spleen, pancreas, and omentum were removed en-bloc and suspended in ice-cold PBS. The omenta floated above the spleen-pancreas complex and were removed and processed similar to the liver. Spleens were processed with a tissue homogenizer, and the resulting homogenate was washed in cold PBS. The pelleted cells were treated with ACK lysis buffer for 4 minutes to remove erythrocytes, and washed in cold PBS prior to staining.
Mouse hepatic, splenic, and omental cells (1×106), and human PBMCs (1×106) were washed with cold FACS buffer [PBS+2% fetal bovine serum (FBS)+0.1% sodium azide] and incubated with 5 μg/ml anti-mouse CD16/CD32 mAb (clone 2•4G2, Fc-block, eBiosciences) for 20 min on ice before staining with fluorescent monoclonal antibodies (mAbs) diluted in FACS buffer at 4° C. for 30-40 min. […]

[1] = system: bacterial counts in blood and multiple organs; test: Microbial growth (CFU) from tissue homogenates and peripheral blood of septic mice; settings: septic B6 mice; compared between vehicle, OCH and KRN7000 treatments
Method: Whole hearts, lungs (left and right), kidneys (left and right), spleen, and liver were removed from euthanized mice and homogenized in 5 mL of PBS. Homogenates were serially diluted 1:10 in PBS and plated on bovine heart infusion (BHI) agar. Plates were grown aerobically at 37° C. overnight to determine tissue colony-forming units (CFU). Intra-cardiac blood (10 μL) was collected in a heparinized syringe from the right ventricle, serially diluted 1:10 with PBS, and plated on BHIagar to determine blood CFU.

inflammatory cytokines = test: Multiplex cytokine quantification in sera and spleens of septic B6 mice
Method: FIG. 5: Cytokine levels in the sera and spleens of septic B6 mice. […] Concentrations of iNKT cell-specific cytokines are shown from sera (b) and spleen homogenates (c) of septic mice treated with vehicle, OCH, or KRN7000 (n=4-8 per group). Concentrations of cytokines are shown in pg/mL. *p<0.05, **p<0.01, ***p<0.001 by one-way ANOVA with post-hoc Tukey's multiple comparison test. Data are representative of at least three independent experiments.
Serum was analyzed by bead-based multiplex assay for 32 different cytokines, chemokines, and growth factors (Eve Technologies, Calgary, Alberta, Canada) including granulocyte-colony stimulating factor (G-CSF), granulocyte macrophage-colony stimulating factor (GM-CSF), interferon-gamma (IFN-γ), interleukin (IL)-1α, IL-1β, IL-2, IL-3, IL-4, IL-5, IL-6, IL-7, IL-9, IL-10, IL-12 (p40), IL-12 (p70), IL-13, IL-15, IL-17A, IP-10, keratinocyte chemo-attractant (KC), leukemia inhibitory factor (LIF), lipopolysaccharide-induced CXC chemokine (LIX), monocyte chemotactic protein (MCP)-1, monocyte-colony stimulating factor (M-CSF), monokine induced by gamma interferon (MIG), macrophage inflammatory protein (MIP)-1α, MIP-1β, MIP-2, Regulated on Activation, Normal T cell Expressed and Secreted (RANTES), tumour necrosis factor (TNF)-α, and vascular endothelial growth factor (VEGF). Multiplex data was visualized using a cytokine heat map that was generated using Matrix2png (33).

splenocyte apoptosis = test: Histology (H&E) and TUNEL staining of spleen, liver and omentum of septic B6 mice; settings: for liver histopathology: among vehicle-, OCH- and KRN-treated mice; for lymphocytes in the omentum: histology; for histopathological scoring of degree of apoptosis in spleen: vehicle-treated: moderate
Excerpt: FIG. 6: Histopathology of septic B6 mice treated with glycolipid agonists of iNKT cells. […] Lymphocyte migration to the omentum is also ameliorated in OCH-treated mice compared to vehicle- and KRN7000-treated mice. There were no histopathological differences in the liver. Images are representative of 4 animals per treatment group (size bar, 50 μm). (b) Histopathological scoring of the degree of apoptosis observed within the spleens of sham and septic B6 mice treated with vehicle, KRN7000, or OCH (n=4 animals per treatment group). Apoptosis was defined histologically by the presence of cell clusters with nuclear shrinkage (karyorrhexis), dark eosinophilic cytoplasm, intact plasma membrane, and relative paucity of surrounding inflammatory cells within the splenic follicles on H&E staining. Scores assigned to each animal by a blinded independent pathologist were as follows: 0 for complete absence of apoptosis; 1 for mild presence of apoptosis (0-15% per follicle); 2 for moderate apoptosis (16-30% per follicle); and 3 for severe apoptosis (31-45% per follicle). ***p<0.0001 by two-tailed Mann Whitney U test.
Liver, spleen, and omentum from sham B6 mice, and vehicle-, OCH-, and KRN7000-treated septic B6 mice were fixed in 10% neutral buffered formalin, embedded in paraffin, sectioned, and stained with H&E or subjected to TUNEL staining using a commercially available kit (Calbiochem). At least four stained sections per spleen from four animals per treatment group were examined and scored for apoptosis by a board-certified veterinary pathologist (Welch) who was blinded to the study design. Apoptosis was defined histologically by the presence of cell clusters with nuclear shrinkage (karyorrhexis), dark eosinophilic cytoplasm, intact plasma membrane, and relative paucity of surrounding inflammatory cells within the splenic follicles on H&E staining (34). Scores assigned to each animal were as follows: 0 for complete absence of apoptosis; 1 for mild presence of apoptosis (0-15% per follicle); 2 for moderate apoptosis (16-30% per follicle); and 3 for severe apoptosis (31-45% per follicle). Photomicrographs were taken using a Nikon DS-Fi1 digital camera using NIS-elements software.

[2] = KRN7000 compared to OCH-treated group

| SMILES | detection of iNKT cells versus OCH treatment (iNKT cells) | detection of iNKT cells versus vehicle (iNKT cells) | microbial load (bacterial counts in blood and multiple organs) [1] | spleen IFN-γ (inflammatory cytokines; [2]) | spleen IL-3 (inflammatory cytokines; [2]) | spleen IL-4 (inflammatory cytokines; [2]) | spleen IL-17 (inflammatory cytokines; [2]) | spleen TNF-α (inflammatory cytokines; [2]) | liver histopathology (splenocyte apoptosis) | lymphocytes in the omentum (splenocyte apoptosis) | histopathological scoring of degree of apoptosis in spleen (splenocyte apoptosis) | serum mean concentration of IL-17 (inflammatory cytokines; OCH compared to KRN7000-treated) | serum concentration of IL-13 (inflammatory cytokines; compared to KRN7000-treated and vehicle-treated) | apoptotic cells within the spleen (H&E, TUNEL) (splenocyte apoptosis; compared to vehicle- and KRN7000-treated mice) |
| --- | --- | --- | --- | --- | --- | --- | --- | --- | --- | --- | --- | --- | --- | --- |
| CCCCCCCCCCCCCCCCCCCCCCCCCC(=O)N[C@@H](CO[C@H]1O[C@H](CO)[C@H](O)[C@H](O)[C@H]1O)[C@H](O)[C@H](O)CCCCCCCCCCCCCC [KRN7000, reference compound] | significantly lower | significantly reduced | similar | significantly elevated | significantly elevated | significantly elevated | significantly elevated | significantly elevated | did not observe overt differences | significant increase | severe (3 for severe apoptosis (31-45% per follicle)) |  |  |  |
| CCCCCCCCCCCCCCCCCCCCCCCC(=O)N[C@@H](COC1OC(CO)C(O)C(O)C1O)[C@H](O)[C@H](O)CCCCC (stereo partly shown) [OCH] |  | significantly reduced | did not worsen |  |  |  |  |  | did not observe overt differences | fewer | mild (1 for mild presence of apoptosis (0-15% per follicle)) | significantly lower | higher | significant reduction |

Reference: patent US20170027973A1, “MODULARION OF INVARIANT NATURAL KILLER T CELLS IN THE TREATMENT OF SEPSIS” (LONDON HEALTH SCIENCES CENTRE RESEARCH INC., priority 2014, published 2017)
